Assay [1] deals with T1, cysteine-rich domain of the murine macrophage mannose receptor (Cys-MR) (Mus musculus, UniProt Q61830).
T1 sequence (Q61830 20-154): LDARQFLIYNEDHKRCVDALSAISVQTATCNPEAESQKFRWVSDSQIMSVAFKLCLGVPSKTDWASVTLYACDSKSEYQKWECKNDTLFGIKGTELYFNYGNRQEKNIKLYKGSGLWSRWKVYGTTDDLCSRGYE
The assay can be described thus: microwell inhibition of Cys-MR-Fc binding to immobilized human lutropin.

The target in assay [2] is T1, cysteine-rich domain of the murine macrophage mannose receptor (Cys-MR). The assay is described as above. The source holds these as a separate data set.

Where two headings read alike, the source gives them in different places.

Usually IC50 stands for the concentration that inhibits the measured activity by half. Read a high IC50 as weaker potency. As for `CC(=O)N[C@H]1C(O)O[C@H](CO)[C@H](OS(=O)(=O)O)[C@@H]1O` (some centres unmarked) [4-sulfated N-acetylgalactosamine], the IC50 in assay [1] was determined as 180 µM. `CC(=O)N[C@H]1C(O)O[C@H](COS(=O)(=O)O)[C@H](O)[C@@H]1O` (some centres unmarked) [6-sulfated N-acetylgalactosamine]: the IC50 in assay [2] worked out at 1300 µM.
